Assays:
[1] = 101 kPa, Liquid
[2] = refractive index (Na D-line) (dimensionless); details: 298.15 K; 101.33 kPa; Liquid
[3] = refractive index (Na D-line) (dimensionless); xn = mol fraction of the nth substance listed; details: 298.15 K, 101 kPa, Liquid
[4] = xn = mol fraction of the nth substance listed; details: 101 kPa, Liquid

COCCOCCOCCO [2-[2-(2-methoxyethoxy)ethoxy]ethanol]
[1]
Details	mass density [kg/m3]
298.15 K	1044.91
308.15 K	1036.11
318.15 K	1027.28

Details	refractive index
[2]	1.4362

CCCCCCCC[n+]1ccn(C)c1.F[B-](F)(F)F [1-methyl-3-octylimidazolium tetrafluoroborate] + COCCOCCO
Details	refractive index
[3], x1 = 1	1.4319

COCCOCCO [2-(2-methoxyethoxy)ethanol]
[1]
Details	mass density [kg/m3]
298.15 K	1014.87
308.15 K	1005.99

Details	refractive index
[2]	1.4242

COCCO [2-methoxyethan-1-ol]
[1]
Details	mass density [kg/m3]
298.15 K	960.05
308.15 K	950.81
318.15 K	941.45

Details	refractive index
[2]	1.4004

CCCCCCCC[n+]1ccn(C)c1.F[B-](F)(F)F [1-methyl-3-octylimidazolium tetrafluoroborate] + COCCO
mass density [kg/m3], [4]
Details	298.15 K	308.15 K	318.15 K
x1 = 0.0106	965.72	956.59	947.31
x1 = 0.0477	983.08	974.21	965.56
x1 = 0.1083	1004.86	996.43	987.84
x1 = 0.1495	1016.31	1007.97	999.62
x1 = 0.2062	1029.2	1021.09	1012.99
x1 = 0.2827	1042.98	1035.09	1027.25
x1 = 0.3204	1048.69	1041.05	1033.14
x1 = 0.542	1073.51	1066.16	1058.83
x1 = 0.7354	1087.07	1079.83	1072.61
x1 = 0.9632	1098.9	1092.03	1085.14
x1 = 0.9929	1098.25	1091.42	1084.47
x1 = 1	1101.08	1094.13	1087.24

[3]
Details	refractive index
x1 = 0.0106	1.4015
x1 = 0.0477	1.4057
x1 = 0.1083	1.4108
x1 = 0.1495	1.4134
x1 = 0.2062	1.4163
x1 = 0.2827	1.4193
x1 = 0.3204	1.4208
x1 = 0.542	1.4258
x1 = 0.7354	1.4285
x1 = 0.9632	1.4312
x1 = 0.9929	1.4318
x1 = 1	1.4319

From the NIST ThermoML archive (doi:10.1016/j.jct.2007.09.011)
